PubChem BioAssay (NCI)
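Test compounds were applied to cells in 96-well plates for 48 hours at 5 doses. At the GI50, growth is halved. TGI: concentration producing complete growth inhibition.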

Experiments:
Assay in all cases: NCI-60 cell line screen, 48 h; in the data active = GI50 below about 0.43 µM; inactive = the rest
[1] = tested on: COLO 205 colon
[2] = tested on: HCC-2998 colon
[3] = tested on: PC-3 prostate
[4] = tested on: SK-MEL-5 melanoma
[5] = tested on: SF-295 CNS
[6] = tested on: DU-145 prostate
[7] = tested on: A498 renal
[8] = tested on: OVCAR-3 ovarian
[9] = tested on: RXF 393 renal
[10] = tested on: MDA-MB-435
[11] = tested on: SNB-75 CNS
[12] = tested on: M14 melanoma
[13] = tested on: MOLT-4 leukemia
[14] = tested on: OVCAR-5 ovarian
[15] = tested on: SW-620 colon
[16] = tested on: NCI-H460 lung
[17] = tested on: MDA-N
[18] = tested on: T-47D breast
[19] = tested on: CCRF-CEM leukemia
[20] = tested on: SK-MEL-28 melanoma
[21] = tested on: MDA-MB-231 breast
[22] = tested on: IGROV1 ovarian
[23] = tested on: UACC-62 melanoma
[24] = tested on: LOX IMVI melanoma
[25] = tested on: K-562 leukemia
[26] = tested on: ACHN renal
[27] = tested on: MALME-3M melanoma
[28] = tested on: KM12 colon
[29] = tested on: SK-MEL-2 melanoma
[30] = tested on: EKVX NSCLC
[31] = tested on: UACC-257 melanoma
[32] = tested on: SR leukemia
[33] = tested on: A549 NSCLC
[34] = tested on: SK-OV-3 ovarian
[35] = tested on: NCI-H522 lung
[36] = tested on: RPMI-8226 leukemia
[37] = tested on: HOP-92 NSCLC
[38] = tested on: HT29 colon
[39] = tested on: SNB-19 CNS
[40] = tested on: HOP-62 NSCLC
[41] = tested on: MCF7 breast
[42] = tested on: SF-268 CNS
[43] = tested on: CAKI-1 renal
[44] = tested on: OVCAR-4 ovarian
[45] = tested on: SN12C renal
[46] = tested on: TK-10 renal
[47] = tested on: UO-31 renal
[48] = tested on: HL-60(TB) leukemia
[49] = tested on: SF-539 CNS
[50] = tested on: NCI-H23 lung
[51] = tested on: U251 CNS
[52] = tested on: NCI/ADR-RES ovarian
[53] = tested on: HCT-116 colon
[54] = tested on: NCI-H226 lung
[55] = tested on: HCT-15 colon
[56] = tested on: 786-0 renal
[57] = tested on: HS 578T breast
[58] = tested on: OVCAR-8 ovarian
[59] = tested on: BT-549 breast

O=C1c2scc(-c3ccc(Cl)cc3)c2-n2cccc21
2.78 µM: TGI [7]
13.7 µM: TGI [32]
> 100 µM: TGI [1] | TGI [2] | TGI [3] | TGI [4] | TGI [5] | TGI [6] | TGI [8] | TGI [9] | TGI [10] | TGI [11] | TGI [12] | TGI [13] | TGI [14] | TGI [15] | TGI [16] | TGI [17] | TGI [18] | TGI [19] | TGI [20] | TGI [21] | TGI [22] | TGI [23] | TGI [24] | TGI [25] | TGI [26] | TGI [27] | TGI [28] | TGI [29] | TGI [30] | TGI [31] | TGI [33] | TGI [34] | TGI [35] | TGI [36]

O=C1/C(=C/c2ccc(Cl)cc2)N=C(c2ccccc2)N1c1ccc(S(=O)(=O)Nc2nccs2)cc1
49.5 µM: TGI [36]
90.7 µM: TGI [37]
75.2 µM: TGI [18]
> 100 µM: TGI [3] | TGI [5] | TGI [6] | TGI [7] | TGI [8] | TGI [9] | TGI [39] | TGI [11] | TGI [40] | TGI [12] | TGI [42] | TGI [43] | TGI [44] | TGI [14] | TGI [15] | TGI [16] | TGI [17] | TGI [20] | TGI [45] | TGI [24] | TGI [46] | TGI [25] | TGI [26] | TGI [47] | TGI [49] | TGI [27] | TGI [50] | TGI [51] | TGI [28] | TGI [52] | TGI [30] | TGI [53] | TGI [54] | TGI [31] | TGI [55] | TGI [32] | TGI [33] | TGI [34] | TGI [56] | TGI [57]
47.4 µM: TGI [2]
47.3 µM: TGI [29]
40.7 µM: TGI [1]
87 µM: TGI [19]
53.1 µM: TGI [23]
82.9 µM: TGI [41]
76.4 µM: TGI [10]
83.2 µM: TGI [13]
56.3 µM: TGI [38]
55.9 µM: TGI [21]
75.6 µM: TGI [48]
66.6 µM: TGI [4]

CS(=O)(=O)CCNCc1ccc(-c2ccc3ncnc(Nc4ccc(OCc5ccccc5)c(Cl)c4)c3c2)o1
11.8 µM: TGI [48]
> 15.8 µM: TGI [51]
active: GI50 [43] 0.41 µM | GI50 [46] 0.158 µM | GI50 [26] 0.187 µM | GI50 [30] 0.132 µM | GI50 [34] 0.0416 µM
23.9 µM: TGI [32]
7.74 µM: TGI [31]
7.49 µM: TGI [20]
inactive: GI50 [58] 8.1 µM | GI50 [1] 4.05 µM | GI50 [2] 4.27 µM | GI50 [3] 7.41 µM | GI50 [4] 2.98 µM | GI50 [5] 4.94 µM | GI50 [59] 6.9 µM | GI50 [6] 7.91 µM | GI50 [7] 1.56 µM | GI50 [8] 6.54 µM | GI50 [9] 1.61 µM | GI50 [37] 3.06 µM | GI50 [38] 3.53 µM | GI50 [39] 10.4 µM | GI50 [10] 4.47 µM | GI50 [11] 4.94 µM | GI50 [40] 6.83 µM | GI50 [41] 5.06 µM | GI50 [12] 4.82 µM | GI50 [42] 6.52 µM | GI50 [13] 6.05 µM | GI50 [44] 9.59 µM | GI50 [14] 3.61 µM | GI50 [15] 4.49 µM | GI50 [16] 6.07 µM | GI50 [18] 1.1 µM | GI50 [19] 7.24 µM | GI50 [20] 3.85 µM | GI50 [21] 4.3 µM | GI50 [22] 2.8 µM | GI50 [45] 11.9 µM | GI50 [23] 4.11 µM | GI50 [24] 4.11 µM | GI50 [25] 5.45 µM | GI50 [47] 1.64 µM | GI50 [48] 5.2 µM | GI50 [49] 4.26 µM | GI50 [27] 5.18 µM | GI50 [50] 8.98 µM | GI50 [51] 5.02 µM | GI50 [28] 6.41 µM | GI50 [29] 4.62 µM | GI50 [52] 5.9 µM | GI50 [53] 4.53 µM | GI50 [54] 4.74 µM | GI50 [31] 3.92 µM | GI50 [55] 3.55 µM | GI50 [32] 6.91 µM | GI50 [33] 7.18 µM | GI50 [35] 2.2 µM | GI50 [56] 4.06 µM | GI50 [57] 3.55 µM | GI50 [36] 5.49 µM
8.2 µM: TGI [24]
24.2 µM: TGI [3]
> 21.5 µM: TGI [19]
> 21.4 µM: TGI [22]
> 21.8 µM: TGI [43]
8.15 µM: TGI [23]
8.98 µM: TGI [15]
> 22.9 µM: TGI [54]
10.4 µM: TGI [27]
6.79 µM: TGI [35]
12.1 µM: TGI [5]
7.38 µM: TGI [47]
12.7 µM: TGI [57]
12.9 µM: TGI [18]
> 13.8 µM: TGI [41]
10 µM: TGI [12] | TGI [55]
11.3 µM: TGI [37]
> 18.7 µM: TGI [30]
9.31 µM: TGI [21]
9.2 µM: TGI [49]
9.33 µM: TGI [7]
13.7 µM: TGI [36]
> 17.8 µM: TGI [16]
9.71 µM: TGI [29]
> 14.1 µM: TGI [46]
> 25 µM: TGI [58] | TGI [59] | TGI [6] | TGI [8] | TGI [39] | TGI [11] | TGI [42] | TGI [13] | TGI [44] | TGI [45] | TGI [26] | TGI [50] | TGI [52] | TGI [33]
> 20.3 µM: TGI [40]
6.33 µM: TGI [9]
9.78 µM: TGI [10]
9.54 µM: TGI [53]
8.58 µM: TGI [56]
> 8.58 µM: TGI [34]
7.98 µM: TGI [38]
17.8 µM: TGI [28]
8.37 µM: TGI [2]
6.08 µM: TGI [4]
9.67 µM: TGI [1]
14.4 µM: TGI [25]
18.8 µM: TGI [14]
